Converted amounts (≈) assume the structure as drawn.
Experiments:
[1] = Dissociation constant of complexes with HPCD by FTIR spectroscopy; format: physicochemical; conditions: complex with HPCD, aqueous solutions, 22 °C
Excerpt: Changes in the microenvironment of chemical bonds, functional groups, protonation/deprotonation, or the formation of non-valent interactions between the receptor and the ligand (in this case, the formation of guest–host inclusion complexes of CD with EG and apiol molecules) leads to a change in the intensity or position of characteristic peaks in the IR spectra. […] The above-indicated peaks in the IR spectra are composite which was visually confirmed by the changes in the shape of peaks and even the appearance of shoulders when the APAB was turned on in the CD cavity. To separate the complex peaks into components, increase sensitivity and obtain more detailed information, the differentiation method was used. The shifts of minima/maxima of the second derivative of spectra (Figure 2B) in allyl ν(C=C) and aromatic ν(C–C) regions were the most prominent. […]
ATR-FTIR spectra of samples’ solutions (point 3.3.1) were recorded using a Bruker Tensor 27 spectrometer equipped with a liquid nitrogen cooled MCT (mercury cadmium telluride) detector. […] ATR-FTIR spectra of solid samples placed on KBr glass were recorded using a Bruker Lumos II IR microscope in the region from 700 to 4000 cm^−1 with 1 cm^−1 spectral resolution with scanning in the area on average 1 × 1 microns. […]

[2] = Formation of inclusion complexes with MCD (UV spectroscopy, Hill linearization); format: physicochemical; conditions: MCD; for EE, % / LC, %: C(MCD) = 0.01 M, pH 6.2, 22 °C; for n: Xaq + n MCDaq ⇌ X·nMCDaq, 5 mM sodium phosphate buffer pH 6.2, 22 °C
Experimental: (§1) To optimize the system composition, similar experiments were carried out on the formation of EG and apiol inclusion complexes with HPCD (Figure S1). […] According to these changes, the dissociation constants of the EG–HPCD and apiol–HPCD complexes (Figure S2) were calculated by Hill’s equation (Table 1). […] The physicochemical parameters of the interaction of APAB and terpenoids (X) with CD were studied by determining the concentration of substances in the aqueous fraction ([APAB] + [APAB-MCD]) according to the calibration dependence (Figure 1C) for systems with a constant amount of the essential oil component X and the concentration gradient MCD (Table 1). Theta (θ) is a fraction of the bound substance X:θ = [X-MCD]/([X-MCD] + [X]) and was calculated based on the dependence of the absorption intensity X on the MCD concentration in the system in the form of a sigmoidal Hill curve with subsequent linearization (Section 3, Section 3.3 and Section 3.4).
(§2) The molar excess of CD varied from 0.04 to 10). Further, the complexes were incubated for 1 h at 37 °C and then centrifuged ([…], 15 min, Eppendorf tubes) to separate the insoluble fractions. Complexes were studied by UV and FTIR spectroscopy.
(§3) UV spectra of solutions (point 3.3.1) were recorded on the AmerSham Biosciences UltraSpec 2100 pro device (USA) three times in the range of 200–400 nm in a quartz cell Hellma 100–QS with an optical path of 1 cm. Background spectrum (5 mM sodium phosphate buffer (pH 6.2) with 50% EtOH) was subtracted as a blank.
(§4) (1) Calculation of the dissociation constants X–MCD and X–HPCD, where X is a “guest” compound, considering the equilibrium: Xaq + n MCDaq ↔ X·nMCDaq, where Kd = [MCDaq]^n · [Xaq]/[X·nMCDaq].
(§5) First, fitting of the curves of change of the analytical signal ξ (peak intensity or peak position) versus concentration of the MCD or HPCD or was carried out using the Hill equations: (1) ξ = ξ∞ · [MCD]^n/([MCD]^n + K^n), where ξ∞—horizontal asymptote; (2) ξ = ξ0 + (ξ∞–ξ0) · [MCD]^n/([MCD]^n + K^n). Second, calculation n and Kd values by Hill’s linearization in n-binding site model: lg (θ/(1 – θ)) = n · lg [L] – lg Kd, where θ = |(ξ – ξ0)/(ξ∞ − ξ0)|is a fraction of the bound substance. N in Hill equation—number of drug molecules per CD torus.
Calculations for the following items are performed when [MCD] = 0.01 M.

[3] = Solubility of X in water and in the presence of MCD/HPCD (UV absorbance)
Experimental: (§6) (3) Solubility of X in water C0 = [Xaq] = A/(ε · l) was determined by UV absorbance after centrifugation of samples (10 min, 10,000× g). l = 1 cm. ε—molar absorbance coefficient (Figure 1C).

[4] = Formation of inclusion complexes with HPCD (UV spectroscopy, Hill linearization); format: physicochemical; conditions: pH 6.2, 22 °C; for EE, % / LC, %: 0.01 M
Experimental: as §1, §2, §3, §4, §5

[5] = Dissolution of APAB on inclusion into CD, observed in a light microscope; format: physicochemical; conditions: MCD and HPCD
Experimental: The dependence of the dissolution degree on the content of CD in the system was determined. […] Since soluble complex forms of EG, apiol and other individual components of essential oils have been obtained, a quantitative study of the adjuvant and synergistic activities of APAB is relevant but previously impossible because of the stratification of substances and the formation of oil fractions. The following are the results of experiments to determine the antibacterial and synergistic effects of adjuvant–CD complexes.

physchem = conditions: 22 °C, pH 6.2, water
Experimental: as §6

E. coli = tested on: E. coli; parameters: method as in PMID 20214546; conditions: EG in the form of a complex with CD; cited from earlier work
[6] = parameters: method as in doi:10.1016/j.foodres.2009.06.006; conditions: complex with β-form of CD; cited from earlier work
[7] = parameters: method as in PMID 20214546; conditions: host:guest molar ratio of 1:1; cited from earlier work
Gram-negative bacteria = tested on: Gram-negative bacteria; parameters: method as in PMID 19540744; conditions: cited from earlier work
[8] = pH 6.2
Experimental: as §6

[9] = Solid-phase FTIR microscopy of the EG–HPCD complex (distribution of EE); format: physicochemical; conditions: EG–HPCD complex in solid form
Excerpt: To level the overlap of bond fluctuations in water molecules and the effect of hydration, the spectra of the EG–HPCD complex in solid form were registered as complementary materials (Figure S6). There are characteristic peaks of EG, which were quenched in the aqueous phase, C–Carom and C=C of the ethylene group. In the solid phase, we observed peaks corresponding to the stretching oscillations of CH2, CH3 groups (2900–3000 cm^−^1) and O-H (3200–3500 cm^−^1) without solvent contribution. […] EG was effectively (EE > 70%) included in two-thirds of the sample by quantity, in the remaining part EE exceeded 25–35%.
ATR-FTIR spectra of samples’ solutions (point 3.3.1) were recorded using a Bruker Tensor 27 spectrometer equipped with a liquid nitrogen cooled MCT (mercury cadmium telluride) detector. Samples were placed in a thermostatic cell BioATR-II with ZnSe ATR element (Bruker, Ettlingen, Germany). The IR spectrometer was merged with a constant flow of N2 (NiGen HF-1, Clint, Italy). FTIR spectra were acquired from 900 to 3000 cm^−1 with 1 cm^−1 spectral resolution. For each spectrum, 50–70 scans were accumulated at 20 kHz scanning speed and averaged. ATR-FTIR spectra of solid samples placed on KBr glass were recorded using a Bruker Lumos II IR microscope in the region from 700 to 4000 cm^−1 with 1 cm^−1 spectral resolution with scanning in the area on average 1 × 1 microns. […]

Row | SMILES | Kd [1] | EE, % [2] | LC, % [2] | n [2] | EE, % [4] | LC, % [4] | n [4] | amount of CD required for a noticeable conversion to the complex/soluble form [5] | molar excess of CD for almost complete dissolution [5] | solubility (physchem) | Cmax in the Presence of 2 mM MCD [8] | Cmax in the Presence of 10 mM MCD [8] | also measured
1 | C=CCc1cc(OC)c2c(c1OC)OCO2 [Apiol] | 4 ± 0.3 mM | 20 ± 2% | 11 ± 1% | 1.6 ± 0.2 | 7 ± 1% | 9 ± 1% | 1.56 ± 0.25 | 2 fold molar excess | 10–15 fold molar excess | – | – | – | solubility ([3]; 22 °C, pH 6.2, water): 130 ± 10 µM
2 | C=CCc1ccc(O)c(OC)c1 [Eugenol, 4-allyl-2-methoxyphenol] | 4.1 ± 0.3 mM | 39 ± 3% | 10 ± 1% | 1.32 ± 0.08 | 56 ± 7% | 9 ± 1% | 1.2 ± 0.1 | equimolar | 5 fold molar excess | 8200 ± 200 µM (≈ 1350 µg/mL) | 8.3 ± 0.2 (MCD), 8.5 ± 0.1 (HPCD) mM | 11 ± 1 (MCD), 13 ± 1 (HPCD) mM | concentration already active in growth inhibition (E. coli): 0.5 mg/mL; half-dissociation period [6]: 3 h; initial amount of EG included in CD [7]: ~92%; mass fraction of EG in the sample [7]: about 58%; reduction of the MIC of antibiotics by EG as an adjuvant (Gram-negative bacteria; Gram-negative bacteria, highest values for tetracycline and vancomycin): 5–1000 times; concentration at which EG forms defects in the membranes of bacteria (Gram-negative bacteria; suggested): 1 mM; Cmax in the Presence of 2 mM HPCD [8]: 8.3 ± 0.2 (MCD), 8.5 ± 0.1 (HPCD) mM; Cmax in the Presence of 10 mM HPCD [8]: 11 ± 1 (MCD), 13 ± 1 (HPCD) mM; EE in the remaining part of the sample ([9]; remaining part): 25–35%; EE in two-thirds of the sample ([9]; two-thirds of the sample by quantity): > 70%
3 | CC1CCC(C(C)C)C(O)C1 (stereo not drawn) [Menthol] | – | 91 ± 6% | 11 ± 1% | 1.1 ± 0.1 | – | – | – | – | – | 230 ± 40 µM (≈ 35.9 µg/mL) | 1.4 ± 0.2 mM | 8.5 ± 0.8 mM | EE, % ([2]; listed as menthol): more than 90%
4 | C=CCc1ccc2c(c1)OCO2 [Safrole] | – | 95 ± 4% | 8 ± 1% | 1.5 ± 0.2 | – | – | – | – | – | 800 ± 100 µM (≈ 130 µg/mL) | – | – | EE, % ([2]; listed as safrole): more than 90%; increased solubility of APAB, times ([3]; APAB–MCD molar ratio 1:5 vs water without MCD, UV): 25 times
